Results reported in US20260015350A1, “AZAQUINAZOLINE PAN-KRAS INHIBITORS” (Mirati Therapeutics, Inc., priority 2022, published 2026).

Columns and labels:
KRas^G12D = target: T1, KRas^G12D (Homo sapiens, UniProt P01116, G12D); test: KRas binding assay (TR-FRET tracer displacement), KRas G12D
T1 construct: Biotinylated KRas (corresponding to amino acids 1-169, produced at Accelegan Inc.); biotin (biotinylated); purchased Accelegan Inc

[1] = test system: KRas-mediated phosphorylation of ERK in H727 cells; test: Inhibition of KRas-mediated phosphorylation of ERK (Cisbio HTRF pERK), H727 cells; type: cell-based; details: Homo sapiens, NCI-H727, H727 cells; HTRF pERK
In short: (§1)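 Signal read by HTRF (d2/Cryptate antibody pair, 2 hr room-temperature incubation on lysate). Cells: 6,000 per well, 3 hr compound exposure. Titration: 10 uM highest, 3-fold, 10 points.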

KRas^G12V = target: T2, KRas^G12V (Homo sapiens, UniProt P01116, G12V); test: KRas binding assay (TR-FRET tracer displacement), KRas G12V
T2 construct: Biotinylated KRas (corresponding to amino acids 1-169, produced at Accelegan Inc.); biotin (biotinylated); purchased Accelegan Inc

KRas^G12R = target: T3, KRas^G12R (Homo sapiens, UniProt P01116, G12R); test: KRas binding assay (TR-FRET tracer displacement), KRas G12R
T3 construct: Biotinylated KRas (corresponding to amino acids 1-169, produced at Accelegan Inc.); biotin (biotinylated); purchased Accelegan Inc

[2] = test system: KRas-mediated phosphorylation of ERK in AsPC-1 cells; test: Inhibition of KRas-mediated phosphorylation of ERK (Cisbio HTRF pERK), AsPC-1 cells; type: cell-based; details: Homo sapiens, ASPC1, AsPC-1 cells; HTRF pERK
In short: as §1

T2 sequence (P01116 1-169 isoform P01116-2 G12V): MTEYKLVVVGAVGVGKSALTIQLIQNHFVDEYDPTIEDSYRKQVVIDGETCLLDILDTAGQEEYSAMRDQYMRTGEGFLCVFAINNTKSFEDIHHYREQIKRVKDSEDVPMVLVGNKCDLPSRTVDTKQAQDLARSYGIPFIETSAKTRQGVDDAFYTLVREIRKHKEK
T3 sequence (P01116 1-169 isoform P01116-2 G12R): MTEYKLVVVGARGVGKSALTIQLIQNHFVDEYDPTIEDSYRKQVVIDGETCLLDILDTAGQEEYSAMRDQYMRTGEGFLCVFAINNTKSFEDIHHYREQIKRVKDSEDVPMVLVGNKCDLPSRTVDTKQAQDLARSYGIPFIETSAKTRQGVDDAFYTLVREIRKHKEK
T1 sequence (P01116 1-169 isoform P01116-2 G12D): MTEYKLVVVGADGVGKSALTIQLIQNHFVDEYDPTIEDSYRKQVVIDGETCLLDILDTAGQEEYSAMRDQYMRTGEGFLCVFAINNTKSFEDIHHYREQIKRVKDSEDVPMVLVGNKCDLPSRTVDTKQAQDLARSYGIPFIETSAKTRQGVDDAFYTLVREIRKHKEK

| SMILES | IC50 (KRas^G12D) | IC50 [1] | IC50 (KRas^G12V) | IC50 (KRas^G12R) | IC50 [2] |
| --- | --- | --- | --- | --- | --- |
| CCc1c(F)ccc2cc(O)cc(-c3ncc4c(N5CCC(Cc6ccn(C)n6)C5)nc(OC[C@@]56CCCN5C[C@H](F)C6)nc4c3F)c12 (stereo partly drawn) [Example 611, 5-ethyl-6-fluoro-4-(8-fluoro-2-(((2R,7aS)-2-fluorotetrahydro-1H-pyrrolizin-7a(5H)-yl)methoxy)-4-(3-((1-methyl-1H-pyrazol-3-yl)methyl)pyrrolidin-1-yl)pyrido[4,3-d]pyrimidin-7-yl)naphthalen-2-ol] | 1530 nM | 1950 nM | 121 nM | 127 nM | 4470 nM |
| CCc1c(F)ccc2cc(O)cc(-c3ncc4c(N5CCCC(S(N)(=O)=O)CC5)nc(OC[C@@]56CCCN5C[C@H](F)C6)nc4c3F)c12 (stereo partly drawn) [Example 631, 1-(7-(8-ethyl-7-fluoro-3-hydroxynaphthalen-1-yl)-8-fluoro-2-(((2R,7aS)-2-fluorotetrahydro-1H-pyrrolizin-7a(5H)-yl)methoxy)pyrido[4,3-d]pyrimidin-4-yl)azepane-4-sulfonamide] | 9 nM | 1600 nM | 12 nM | 33 nM | 3130 nM |
| CCc1c(F)ccc2cc(O)cc(-c3ncc4c(N5Cc6c(C(=O)N(C)C)nn(C)c6C5)nc(OC[C@@]56CCCN5C[C@H](F)C6)nc4c3F)c12 [Example 867, 5-(7-(8-ethyl-7-fluoro-3-hydroxynaphthalen-1-yl)-8-fluoro-2-(((2R,7aS)-2-fluorotetrahydro-1H-pyrrolizin-7a(5H)-yl)methoxy)pyrido[4,3-d]pyrimidin-4-yl)-N,N, 1-trimethyl-1,4,5,6-tetrahydropyrrolo[3,4-c]pyrazole-3-carboxamide] | 527 nM | 3410 nM | 97 nM | 253 nM | > 10000 nM |
| CCc1c(F)ccc2cc(O)cc(-c3ncc4c(N5CCCC6(C5)CN(S(C)(=O)=O)C6)nc(OC[C@@]56CCCN5C[C@H](F)C6)nc4c3F)c12 [Example 654, 5-ethyl-6-fluoro-4-(8-fluoro-2-(((2R,7aS)-2-fluorohexahydro-1H-pyrrolizin-7a-yl)methoxy)-4-(2-(methylsulfonyl)-2,6-diazaspiro[3.5]nonan-6-yl)pyrido[4,3-d]pyrimidin-7-yl)naphthalen-2-ol] | 19 nM | 1790 nM | 25 nM | 18 nM | 1410 nM |
| O=C1CC2CN(c3nc(OCC45CCCN4CCC5)nc4c(F)c(-c5cccc6cccc(F)c56)ncc34)CCC2C(=O)N1 (centres unmarked) [Example 526, 6-(8-fluoro-7-(8-fluoronaphthalen-1-yl)-2-((hexahydro-1H-pyrrolizin-7a-yl)methoxy)pyrido[4,3-d]pyrimidin-4-yl)hexahydro-2,6-naphthyridine-1,3(2H,4H)-dione] | > 100000 nM | > 10000 nM | > 100000 nM | 67700 nM | > 10000 nM |
| CCc1c(F)ccc2cc(O)cc(-c3ncc4c(N5CCN6C[C@@H](O)C[C@H]6C5)nc(OC[C@@]56CCCN5C[C@H](F)C6)nc4c3F)c12 [Example 567, (7S,8aS)-2-(7-(8-ethyl-7-fluoro-3-hydroxynaphthalen-1-yl)-8-fluoro-2-(((2R,7aS)-2-fluorohexahydro-1H-pyrrolizin-7a-yl)methoxy)pyrido[4,3-d]pyrimidin-4-yl) octahydropyrrolo[1,2-a]pyrazin-7-ol] | 682 nM | > 10000 nM | 2430 nM | 1460 nM | > 10000 nM |
| CCc1c(F)ccc2cc(O)cc(-c3ncc4c(N5CC6(CO)CC(C7CC7)(C5)C6)nc(OC[C@@]56CCCN5C[C@H](F)C6)nc4c3F)c12 [Example 613, 4-(4-(1-cyclopropyl-5-(hydroxymethyl)-3-azabicyclo[3.1.1]heptan-3-yl)-8-fluoro-2-(((2R,7aS)-2-fluorohexahydro-1H-pyrrolizin-7a-yl)methoxy)pyrido[4,3-d]pyrimidin-7-yl)-5-ethyl-6-fluoronaphthalen-2-ol] | 54800 nM | > 10000 nM | 21800 nM | 27500 nM | > 10000 nM |
| CCc1c(F)ccc2cc(O)cc(-c3ncc4c(N5CCCC(C6CCC(=O)N6)C5)nc(OC[C@@]56CCCN5C[C@H](F)C6)nc4c3F)c12 (stereo partly drawn) [Example 620, 5-(1-(7-(8-ethyl-7-fluoro-3-hydroxynaphthalen-1-yl)-8-fluoro-2-(((2R,7aS)-2-fluorohexahydro-1H-pyrrolizin-7a-yl)methoxy)pyrido[4,3-d]pyrimidin-4-yl)piperidin-3-yl)pyrrolidin-2-one] | 495 nM | 6800 nM | 248 nM | 376 nM | 9680 nM |
| CCc1c(F)ccc2cc(O)cc(-c3ncc4c(N5CCC[C@@](C)(O)C5)nc(N5CC(N)C5)nc4c3F)c12 [Example 527, (R)-1-(2-(3-aminoazetidin-1-yl)-7-(8-ethyl-7-fluoro-3-hydroxynaphthalen-1-yl)-8-fluoropyrido[4,3-d]pyrimidin-4-yl)-3-methylpiperidin-3-ol] | 116 nM | > 10000 nM | 150 nM | 193 nM | > 10000 nM |
| CCc1c(F)ccc2cc(O)cc(-c3ncc4c(NCc5cc(C(=O)N(C)C)n(CC6CC(O)C6)n5)nc(OC[C@@]56CCCN5C[C@H](F)C6)nc4c3F)c12 (stereo partly drawn) [Example 688, 3-(((7-(8-ethyl-7-fluoro-3-hydroxynaphthalen-1-yl)-8-fluoro-2-(((2R,7aS)-2-fluorohexahydro-1H-pyrrolizin-7a-yl)methoxy)pyrido[4,3-d]pyrimidin-4-yl)amino)methyl)-1-((3-hydroxycyclobutyl)methyl)-N,N-dimethyl-1H-pyrazole-5-carboxamide] | 357 nM | > 10000 nM | 42 nM | 160 nM | > 10000 nM |
| CCc1c(F)ccc2cc(O)cc(-c3ncc4c(NCc5cc(C(=O)N(C)C)nn5[C@H]5C[C@H](O)C5)nc(OC[C@@]56CCCN5C[C@H](F)C6)nc4c3F)c12 [Example 682, 5-(((7-(8-ethyl-7-fluoro-3-hydroxynaphthalen-1-yl)-8-fluoro-2-(((2R,7aS)-2-fluorotetrahydro-1H-pyrrolizin-7a(5H)-yl)methoxy)pyrido[4,3-d]pyrimidin-4-yl)amino)methyl)-1-(trans-3-hydroxycyclobutyl)-N,N-dimethyl-1H-pyrazole-3-carboxamide] | 710 nM | > 10000 nM | 192 nM | 541 nM | > 10000 nM |
| CCc1c(F)ccc2cc(O)cc(-c3ncc4c(N5CCCC6(CC=CCO6)C5)nc(OC[C@@]56CCCN5C[C@H](F)C6)nc4c3F)c12 (stereo partly drawn) [Example 589, 5-ethyl-6-fluoro-4-(8-fluoro-2-(((2R,7aS)-2-fluorotetrahydro-1H-pyrrolizin-7a(5H)-yl)methoxy)-4-(1-oxa-8-azaspiro[5.5]undec-3-en-8-yl)pyrido[4,3-d]pyrimidin-7-yl)naphthalen-2-ol] | 38 nM | 731 nM | 16 nM | 12 nM | 1540 nM |
| CCc1c(F)ccc2cc3[nH]ncc3c(-c3ncc4c(N5CCC[C@]6(C5)NC(=O)NC6=O)nc(OCC56CCCN5CCC6)nc4c3F)c12 [Example 884, (5R)-7-(7-(5-ethyl-6-fluoro-1H-benzo[f]indazol-4-yl)-8-fluoro-2-((tetrahydro-1H-pyrrolizin-7a(5H)-yl)methoxy)pyrido[4,3-d]pyrimidin-4-yl)-1,3,7-triazaspiro[4.5]decane-2,4-dione] | < 2 nM | 2810 nM | < 2 nM | < 2 nM | 3180 nM |
